Measured values from EP0652008A1 (priority 1993, dated 1995).
Read-outs that look alike come from different tables or passages of the source.

Legend:
[1] = in vivo; cited from earlier work
[2] = tested on: Francisella tularensis; assay type: in vivo, BALB/c mice; conditions: for % SURVIVALS AT DAY 14 POST INFECTION: single dose 1 mg per mouse
[3] = tested on: Francisella tularensis; assay type: in vivo, BALB/c mice; conditions: for % SURVIVALS AT DAY 14 POST INFECTION: single dose
[4] = patients taking both ciprofloxacin and theophylline; many to the toxic range; cited from earlier work

Compound	bioavailability rates [1]	% SURVIVALS AT DAY 14 POST INFECTION ([2]; INTRANSAL pretreatment and infection, 1 day before infection) [%]	% SURVIVALS AT DAY 14 POST INFECTION ([2]; INTRANSAL pretreatment and infection, 2 days before infection) [%]	% SURVIVALS AT DAY 14 POST INFECTION ([2]; INTRANSAL pretreatment and infection, 3 days before infection) [%]	% SURVIVALS AT DAY 14 POST INFECTION ([2]; INTRANSAL pretreatment and infection, 7 days before infection) [%]	% SURVIVALS AT DAY 14 POST INFECTION ([2]; INTRAVENOUS pretreatment and infection, 1 day before infection) [%]	% SURVIVALS AT DAY 14 POST INFECTION ([2]; INTRAVENOUS pretreatment and infection, 2 days before infection) [%]	% SURVIVALS AT DAY 14 POST INFECTION ([2]; INTRAVENOUS pretreatment and infection, 3 days before infection) [%]	% SURVIVALS AT DAY 14 POST INFECTION ([2]; INTRAVENOUS pretreatment and infection, 7 days before infection) [%]	protection by single dose before infection (in words) ([2]; single dose before infection with 10 LD50)	% SURVIVALS AT DAY 14 POST INFECTION ([3]; INTRANSAL infection and treatment, 1 day after infection) [%]	% SURVIVALS AT DAY 14 POST INFECTION ([3]; INTRANSAL infection and treatment, 2 days after infection) [%]	% SURVIVALS AT DAY 14 POST INFECTION ([3]; INTRANSAL infection and treatment, 3 days after infection) [%]	% SURVIVALS AT DAY 14 POST INFECTION ([3]; INTRANSAL infection and treatment, 7 days after infection) [%]	% SURVIVALS AT DAY 14 POST INFECTION ([3]; INTRAVENOUS infection and treatment, 1 day after infection) [%]	% SURVIVALS AT DAY 14 POST INFECTION ([3]; INTRAVENOUS infection and treatment, 2 days after infection) [%]	% SURVIVALS AT DAY 14 POST INFECTION ([3]; INTRAVENOUS infection and treatment, 3 days after infection) [%]	% SURVIVALS AT DAY 14 POST INFECTION ([3]; INTRAVENOUS infection and treatment, 7 days after infection) [%]	efficacy in the treatment of infected mice (in words) ([3]; single dose at day 1, 2, 3 and 7 post infection)	patients who developed increases of theophylline [4]
CC1(C)S[C@@H]2[C@H](NC(=O)Cc3ccccc3)C(=O)N2[C@H]1C(=O)O [penicillin G]	45-50%	–	–	–	–	–	–	–	–	–	–	–	–	–	–	–	–	–	–	–
O=C(O)c1cn(C2CC2)c2cc(N3CCNCC3)c(F)cc2c1=O [Ciprofloxacin, ciprofloxacin]	–	0	0	0	12	8	0	12	0	succumbed to 10 LD₅₀ of tularemia in a manner similar to the control untreated mice	50	0	25	0	0	25	0	12	totally ineffective	20 of 33
